Measured values reported in ChEMBL document CHEMBL1140602, “A simple, yet highly accurate, QSAR model captures the complement inhibitory activity of compstatin” (Bioorg Med Chem, 2007).
Positions of bridges follow the written chain, without caps; N, C: chain ends. Non-standard residues stand in square brackets, D forms with d. Residues, ends and D or L forms follow the SMILES beside them. Abu = CC[C@H](N)C(=O)O

Experiment: Inhibition of C3b activation relative to compstatin

| logIC50 | SMILES |
| --- | --- |
| 0.574 | CC[C@H](C)[C@H](NC(=O)[C@@H]1CSSC[C@H](NC(=O)[C@@H](NC(C)=O)[C@@H](C)CC)C(=O)N[C@@H](C(C)C)C(=O)N[C@@H](C(C)C)C(=O)N[C@@H](CCC(N)=O)C(=O)N[C@@H](CC(=O)O)C(=O)N[C@@H](Cc2c[nH]c3ccccc23)C(=O)NCC(=O)N[C@@H](Cc2cnc[nH]2)C(=O)N[C@@H](Cc2cnc[nH]2)C(=O)N[C@@H](CCCNC(=N)N)C(=O)N1)C(N)=O (Ac-ICVVQDWGHHRCI-NH2; disulfide 2-12) |
| 0.176 | CC(=O)N[C@@H](CCCNC(=N)N)C(=O)N[C@H]1CSSC[C@@H](C(=O)N[C@H](C(N)=O)[C@@H](C)O)NC(=O)[C@H](CCCNC(=N)N)NC(=O)[C@H](Cc2cnc[nH]2)NC(=O)[C@H](Cc2cnc[nH]2)NC(=O)CNC(=O)[C@H](Cc2c[nH]c3ccccc23)NC(=O)[C@H](CC(=O)O)NC(=O)[C@H](CCC(N)=O)NC(=O)[C@H](C(C)C)NC(=O)[C@H](C(C)C)NC1=O (Ac-RCVVQDWGHHRCT-NH2; disulfide 2-12) |
| -0.097 | CC(C)[C@@H]1NC(=O)[C@H](C(C)C)NC(=O)[C@@H](N)CSSC[C@@H](C(=O)O)NC(=O)[C@H](CCCNC(=N)N)NC(=O)[C@H](Cc2cnc[nH]2)NC(=O)[C@H](C)NC(=O)CNC(=O)[C@H](Cc2c[nH]c3ccccc23)NC(=O)[C@H](CC(=O)O)NC(=O)[C@H](CCC(N)=O)NC1=O (H-CVVQDWGAHRC-OH; disulfide 1-11) |
| -0.79 | CC(C)[C@@H]1NC(=O)[C@H](C(C)C)NC(=O)[C@@H](N)CSSC[C@@H](C(=O)O)NC(=O)[C@H](CCCNC(=N)N)NC(=O)[C@H](C)NC(=O)[C@H](Cc2cnc[nH]2)NC(=O)CNC(=O)[C@H](Cc2c[nH]c3ccccc23)NC(=O)[C@H](CC(=O)O)NC(=O)[C@H](CCC(N)=O)NC1=O (H-CVVQDWGHARC-OH; disulfide 1-11) |
| -0.767 | CC(C)[C@@H]1NC(=O)[C@H](C(C)C)NC(=O)[C@@H](N)CSSC[C@@H](C(=O)O)NC(=O)[C@H](C)NC(=O)[C@H](Cc2cnc[nH]2)NC(=O)[C@H](Cc2cnc[nH]2)NC(=O)CNC(=O)[C@H](Cc2c[nH]c3ccccc23)NC(=O)[C@H](CC(=O)O)NC(=O)[C@H](CCC(N)=O)NC1=O (H-CVVQDWGHHAC-OH; disulfide 1-11) |
| -0.439 | CC(C)[C@@H]1NC(=O)[C@H](C(C)C)NC(=O)[C@@H](N)CSSC[C@@H](C(N)=O)NC(=O)[C@H](CCCNC(=N)N)NC(=O)[C@H](Cc2cnc[nH]2)NC(=O)[C@H](Cc2cnc[nH]2)NC(=O)CNC(=O)[C@H](Cc2c[nH]c3ccccc23)NC(=O)[C@H](CC(=O)O)NC(=O)[C@H](CCC(N)=O)NC1=O (H-CVVQDWGHHRC-NH2; disulfide 1-11) |
| -0.439 | CC(C)[C@@H]1NC(=O)[C@H](C(C)C)NC(=O)[C@@H](N)CSSC[C@@H](C(=O)O)NC(=O)[C@H](CCCNC(=N)N)NC(=O)[C@H](Cc2cnc[nH]2)NC(=O)[C@H](Cc2cnc[nH]2)NC(=O)CNC(=O)[C@H](Cc2c[nH]c3ccccc23)NC(=O)[C@H](CC(=O)O)NC(=O)[C@H](CCC(N)=O)NC1=O (H-CVVQDWGHHRC-OH; disulfide 1-11) |
| -0.319 | CC(C)[C@@H]1NC(=O)[C@H](C(C)C)NC(=O)[C@@H](N)CSSC[C@@H](C(=O)N[C@H](C(N)=O)[C@@H](C)O)NC(=O)[C@H](CCCNC(=N)N)NC(=O)[C@H](Cc2cnc[nH]2)NC(=O)[C@H](Cc2cnc[nH]2)NC(=O)CNC(=O)[C@H](Cc2c[nH]c3ccccc23)NC(=O)[C@H](CC(=O)O)NC(=O)[C@H](CCC(N)=O)NC1=O (H-CVVQDWGHHRCT-NH2; disulfide 1-11) |
| -0.264 | CC(C)[C@@H]1NC(=O)[C@@H](NC(=O)[C@@H](N)CC(=O)O)CSSC[C@@H](C(=O)N[C@H](C(N)=O)[C@@H](C)O)NC(=O)[C@H](CCCCN)NC(=O)[C@H](Cc2cnc[nH]2)NC(=O)[C@H](Cc2cnc[nH]2)NC(=O)CNC(=O)[C@H](Cc2c[nH]c3ccccc23)NC(=O)[C@H](CC(=O)O)NC(=O)[C@H](CCC(N)=O)NC(=O)[C@H](C(C)C)NC1=O (H-DCVVQDWGHHKCT-NH2; disulfide 2-12) |
| -0.226 | CC[C@H](C)[C@H](N)C(=O)N[C@H]1CSSC[C@@H](C(=O)N[C@H](C(N)=O)[C@@H](C)O)NC(=O)[C@H](CCCCN)NC(=O)[C@H](Cc2cnc[nH]2)NC(=O)[C@H](Cc2cnc[nH]2)NC(=O)CNC(=O)[C@H](Cc2c[nH]c3ccccc23)NC(=O)[C@H](CC(=O)O)NC(=O)[C@H](CCC(N)=O)NC(=O)[C@H](C(C)C)NC(=O)[C@H](C(C)C)NC1=O (H-ICVVQDWGHHKCT-NH2; disulfide 2-12) |

The remaining lines, values behind:

| SMILES | logIC50 |
| --- | --- |
| CC[C@H](C)[C@H](NC(C)=O)C(=O)N[C@H]1CSSC[C@@H](C(=O)N[C@H](C(N)=O)[C@@H](C)O)NC(=O)[C@H](CCCNC(=N)N)NC(=O)[C@H](Cc2cnc[nH]2)NC(=O)[C@H](Cc2cnc[nH]2)NC(=O)CNC(=O)[C@H](Cc2c[nH]c3ccccc23)NC(=O)[C@H](CC(=O)O)NC(=O)[C@H](CCC(N)=O)NC(=O)[C@H](C(C)C)NC(=O)[C@H](CC(C)C)NC1=O (Ac-ICLVQDWGHHRCT-NH2; disulfide 2-12) | 0.079 |
| CC[C@H](C)[C@H](NC(=O)[C@@H]1CSSC[C@H](NC(=O)[C@@H](NC(C)=O)[C@@H](C)CC)C(=O)N[C@@H](C(C)C)C(=O)N[C@@H](C)C(=O)N[C@@H](CCC(N)=O)C(=O)N[C@@H](CC(=O)O)C(=O)N[C@@H](Cc2c[nH]c3ccccc23)C(=O)NCC(=O)N[C@@H](C)C(=O)N[C@@H](Cc2cnc[nH]2)C(=O)N[C@@H](CCCNC(=N)N)C(=O)N1)C(N)=O (Ac-ICVAQDWGAHRCI-NH2; disulfide 2-12) | 0.477 |
| CC[C@H](C)[C@H](NC(C)=O)C(=O)N[C@H]1CSSC[C@@H](C(=O)N[C@H](C(N)=O)[C@@H](C)O)NC(=O)[C@H](CCCNC(=N)N)NC(=O)[C@H](Cc2cnc[nH]2)NC(=O)[C@H](Cc2cnc[nH]2)NC(=O)CNC(=O)[C@H](Cc2c[nH]c3ccccc23)NC(=O)[C@H](CC(=O)O)NC(=O)[C@H](CCC(N)=O)NC(=O)[C@H](Cc2ccccc2)NC(=O)[C@H](C(C)C)NC1=O (Ac-ICVFQDWGHHRCT-NH2; disulfide 2-12) | 0.721 |
| CC[C@H](C)[C@H](NC(C)=O)C(=O)N[C@H]1CSSC[C@@H](C(=O)N[C@H](C(N)=O)[C@@H](C)O)NC(=O)[C@H](CCCNC(=N)N)NC(=O)[C@H](Cc2cnc[nH]2)NC(=O)[C@H](Cc2cnc[nH]2)NC(=O)CNC(=O)[C@H](Cc2c[nH]c3ccccc23)NC(=O)[C@H](CC(=O)O)NC(=O)[C@H](CCC(N)=O)NC(=O)[C@H](Cc2cnc[nH]2)NC(=O)[C@H](C(C)C)NC1=O (Ac-ICVHQDWGHHRCT-NH2; disulfide 2-12) | 0.708 |
| CC[C@H](C)[C@H](NC(C)=O)C(=O)N[C@H]1CSSC[C@@H](C(=O)N[C@H](C(N)=O)[C@@H](C)O)NC(=O)[C@H](CCCNC(=N)N)NC(=O)[C@H](Cc2cnc[nH]2)NC(=O)[C@H](Cc2cnc[nH]2)NC(=O)CNC(=O)[C@H](Cc2c[nH]c3ccccc23)NC(=O)[C@H](CC(=O)O)NC(=O)[C@H](CCC(N)=O)NC(=O)[C@H](CO)NC(=O)[C@H](C(C)C)NC1=O (Ac-ICVSQDWGHHRCT-NH2; disulfide 2-12) | 0.022 |
| CC[C@H](C)[C@H](NC(C)=O)C(=O)N[C@H]1CSSC[C@@H](C(=O)N[C@H](C(N)=O)[C@@H](C)O)NC(=O)[C@H](C)NC(=O)[C@H](Cc2cnc[nH]2)NC(=O)[C@H](Cc2cnc[nH]2)NC(=O)CNC(=O)[C@H](Cc2c[nH]c3ccccc23)NC(=O)[C@H](CC(=O)O)NC(=O)[C@H](CC(N)=O)NC(=O)[C@H](C(C)C)NC(=O)[C@H](C(C)C)NC1=O (Ac-ICVVNDWGHHACT-NH2; disulfide 2-12) | -0.699 |
| CC[C@H](C)[C@H](NC(C)=O)C(=O)N[C@H]1CSSC[C@@H](C(=O)N[C@H](C(N)=O)[C@@H](C)O)NC(=O)[C@H](CCCNC(=N)N)NC(=O)[C@H](Cc2cnc[nH]2)NC(=O)[C@H](Cc2cnc[nH]2)NC(=O)CNC(=O)[C@H](Cc2c[nH]c3ccccc23)NC(=O)[C@H](CC(=O)O)NC(=O)[C@H](CC(N)=O)NC(=O)[C@H](C(C)C)NC(=O)[C@H](C(C)C)NC1=O (Ac-ICVVNDWGHHRCT-NH2; disulfide 2-12) | 0.456 |
| CC[C@H](C)[C@H](NC(C)=O)C(=O)N[C@H]1CSSC[C@@H](C(=O)N[C@H](C(N)=O)[C@@H](C)O)NC(=O)[C@H](C)NC(=O)[C@H](Cc2cnc[nH]2)NC(=O)[C@H](C)NC(=O)CNC(=O)[C@H](Cc2c[nH]c3ccccc23)NC(=O)[C@H](CC(=O)O)NC(=O)[C@H](CCC(N)=O)NC(=O)[C@H](C(C)C)NC(=O)[C@H](C(C)C)NC1=O (Ac-ICVVQDWGAHACT-NH2; disulfide 2-12) | 0.084 |
| CC[C@H](C)[C@H](NC(C)=O)C(=O)N[C@H]1CSSC[C@@H](C(=O)N[C@H](C(N)=O)[C@@H](C)O)NC(=O)[C@H](CCCNC(=N)N)NC(=O)[C@H](Cc2cnc[nH]2)NC(=O)[C@H](C)NC(=O)CNC(=O)[C@H](Cc2c[nH]c3ccccc23)NC(=O)[C@H](CC(=O)O)NC(=O)[C@H](CCC(N)=O)NC(=O)[C@H](C(C)C)NC(=O)[C@H](C(C)C)NC1=O (Ac-ICVVQDWGAHRCT-NH2; disulfide 2-12) | 0.617 |
| CC[C@@H]1NC(=O)CNC(=O)[C@H](Cc2c[nH]c3ccccc23)NC(=O)[C@H](CC(=O)O)NC(=O)[C@H](CCC(N)=O)NC(=O)[C@H](Cc2c[nH]c3ccccc23)NC(=O)[C@H](C(C)C)NC(=O)[C@@H](NC(=O)[C@@H](NC(C)=O)[C@@H](C)CC)CSSC[C@@H](C(=O)N[C@H](C(N)=O)[C@@H](C)O)NC(=O)[C@H](CCCNC(=N)N)NC(=O)[C@H](Cc2cnc[nH]2)NC1=O (Ac-ICVWQDWG[Abu]HRCT-NH2; disulfide 2-12) | 1.55 |
| CSCC[C@H](NC(C)=O)C(=O)N[C@H]1CSSC[C@@H](C(=O)N[C@@H](Cc2ccccc2)C(N)=O)NC(=O)[C@H](CCCNC(=N)N)NC(=O)[C@H](Cc2cnc[nH]2)NC(=O)CNC(=O)CNC(=O)[C@H](Cc2c[nH]c3ccccc23)NC(=O)[C@H](CC(=O)O)NC(=O)[C@H](CCC(N)=O)NC(=O)[C@H](Cc2cnc[nH]2)NC(=O)[C@H](C(C)C)NC1=O (Ac-MCVHQDWGGHRCF-NH2; disulfide 2-12) | -0.863 |
| CC(C)C[C@H](N)C(=O)N[C@H]1CSSC[C@@H](C(=O)NCC(N)=O)NC(=O)[C@H](CCCNC(=N)N)NC(=O)[C@H](Cc2cnc[nH]2)NC(=O)[C@H](Cc2c[nH]c3ccccc23)NC(=O)CNC(=O)[C@H](Cc2c[nH]c3ccccc23)NC(=O)[C@H](CC(=O)O)NC(=O)[C@H](CCC(N)=O)NC(=O)[C@H](C(C)C)NC(=O)[C@H](C(C)C)NC1=O (H-LCVVQDWGWHRCG-NH2; disulfide 2-12) | 0.617 |
